Test results: patent US12668599B2, “Heterobifunctional compounds and methods of treating disease” (Halda Therapeutics OpCo, Inc., priority 2023, dated 2026)

What was measured:
[1] = Stability to storage of crystal form under relative humidity; format: physicochemical; conditions: 23-25° C., 23% RH to 53% RH, one week
[2] = Stability analysis of Crystal Form A and Crystal Form B in solvent suspensions (XRPD); format: physicochemical; conditions: suspensions in EtOH, Acetone, Acetonitrile, THF/Heptane at 25° C. and 50° C. for 1 week
Method: The obtained suspensions were stirred at 25° C. and 50° C. for 1 week, respectively. Solid parts (wet cakes) were isolated by centrifugation filtration at […] temperature and investigated by XRPD.

## COc1cc(O[C@H]2C(C)(C)[C@H](NC(=O)c3cnc(N4CCC5(CC4)CC(Oc4ccc(C6=N[C@@H](Cc7ncco7)c7nnc(C)n7-c7sc(C)c(C)c76)cc4)C5)nc3)C2(C)C)ccc1C#N [Compound II-5 in Crystal Form A, N-[(1r,3r)-3-(4-cyano-3-methoxy-phenoxy)-2,2,4,4-tetramethyl-cyclobutyl]-2-[2-[4-[(9S)-4,5,13-trimethyl-9-(oxazol-2-ylmethyl)-3-thia-1,8,11,12-tetrazatricyclo[8.3.0.0^2,6]trideca-2 (6),4,7,10,12-pentaen-7-yl]phenoxy]-7-azaspiro[3.5]nonan-7-yl]pyrimidine-5-carboxamide Crystal Form A]
[1]
  physical stability of crystalline form on storage: no change in crystalline form was observed
[2]
  relative stability of crystal forms: superior stability
